Reference: US8410097B2 (priority 2005, dated 2013)
Like-named read-outs stand apart in the source and are kept apart here. Blank lines part the entries; values can stand above or below the molecule they belong to.

How the values were obtained:
CB1 cannabinoid receptor = target: T1, CB1 cannabinoid receptor (Rattus norvegicus, UniProt P20272); test: biochemical; assay type: binding; settings: for Ki: rat forebrain membranes; for Selectivity CB1: CB1 over CB2 binding selectivity (ratio of Ki)
T1 construct: membranes were prepared from rat forebrain membranes; from tissue; host or cells: rat forebrain membranes
Procedure: Some of the inventive analogs were tested for CB2 receptor binding affinity and for CB1 receptor affinity (to determine selectivity). […] The lower the Ki value the higher the binding affinity. […]
Membranes, previously frozen at −80° C., were thawed on ice. To the stirred suspension was added three volumes of TME (25 mM Tris-HCl buffer, 5 mM MgCl2 and 1 mM EDTA) at a pH 7.4. The suspension was incubated at 4° C. for 30 min. At the end of the incubation, the membranes were pelleted and washed three times with TME.
(§1) The treated membranes were subsequently used in the binding assay described below. Approximately 30 μg of membranes were incubated in silanized 96-well microtiter plate with TME containing 0.1% essentially fatty acid-free bovine serum albumin (BSA), 0.8 nM [^3H] […] Radioactivity was detected using MicroScint 20 scintillation cocktail added directly to the dried filterplates, and the filterplates were counted using a Packard Instruments Top-Count. […] Data collected from three independent experiments performed with duplicate determinations was normalized between 100% and 0% specific binding for [^3H] […] The normalized data was analyzed using a 4-parameter nonlinear logistic equation to yield IC50 values.

CB2 cannabinoid receptor = CB2 cannabinoid receptor (Mus musculus, UniProt P47936); test: biochemical; assay type: binding; settings: mouse spleen membranes
Procedure: Some of the inventive analogs were tested for CB2 receptor binding affinity and for CB1 receptor affinity (to determine selectivity). […] The lower the Ki value the higher the binding affinity.
as §1
Silanized centrifuge tubes were used throughout to minimize receptor loss due to adsorption. The CB2 binding assay was conducted in the same manner as for the CB1 binding assay. The binding affinities (Ki) were also expressed in nanomoles (nM).

[1] = Receptor Affinities Ki (nM) CB1, Table 9
[2] = Table 9, read-out: Receptor Affinities Ki (nM) CB2
[3] = Receptor Affinities Ki (nM) CB1, Table 10
[4] = Table 10, read-out: Receptor Affinities Ki (nM) CB2
[5] = CB1 Ki, Table 6, 0.8 nM [3H] CP-55,940
[6] = Table 6, [3H] CP-55,940, read-out: CB2 Ki
[7] = Table 6, 0.8 nM [3H] CP-55,940, read-out: CB1 Ki
[8] = CB2 Ki, Table 6, [3H] CP-55,940

CB2 cannabinoid receptor, sequence (P47936 whole entry): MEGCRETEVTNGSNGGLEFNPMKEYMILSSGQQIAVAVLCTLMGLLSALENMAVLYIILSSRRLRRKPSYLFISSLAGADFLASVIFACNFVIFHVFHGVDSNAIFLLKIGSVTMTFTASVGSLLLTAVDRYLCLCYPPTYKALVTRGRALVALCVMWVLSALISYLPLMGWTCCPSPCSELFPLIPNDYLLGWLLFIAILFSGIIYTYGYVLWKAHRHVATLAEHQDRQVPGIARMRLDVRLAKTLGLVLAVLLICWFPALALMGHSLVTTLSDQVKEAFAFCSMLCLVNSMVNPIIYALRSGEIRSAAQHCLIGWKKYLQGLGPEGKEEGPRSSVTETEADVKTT
T1 sequence (P20272 whole entry): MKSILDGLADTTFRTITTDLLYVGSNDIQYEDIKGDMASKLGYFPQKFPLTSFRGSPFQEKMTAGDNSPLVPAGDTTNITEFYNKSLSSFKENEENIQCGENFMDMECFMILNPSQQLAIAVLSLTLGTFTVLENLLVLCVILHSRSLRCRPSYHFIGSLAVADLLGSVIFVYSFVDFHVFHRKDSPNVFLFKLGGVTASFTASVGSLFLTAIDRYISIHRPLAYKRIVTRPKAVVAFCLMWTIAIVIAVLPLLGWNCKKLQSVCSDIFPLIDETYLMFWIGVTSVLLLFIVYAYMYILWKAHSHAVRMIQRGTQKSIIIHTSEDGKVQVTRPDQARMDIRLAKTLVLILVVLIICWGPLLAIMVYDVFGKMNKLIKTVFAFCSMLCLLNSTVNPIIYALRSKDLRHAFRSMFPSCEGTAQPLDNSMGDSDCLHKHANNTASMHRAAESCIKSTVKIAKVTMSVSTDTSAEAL

SMILES: Cc1c(C(=O)NN2CCCCC2)nn(-c2ccc(Cl)cc2Cl)c1-c1ccc(CCCCN=[N+]=[N-])cc1 [Compound 4-5]
- Ki (CB1 cannabinoid receptor; [1]): 3 nM
- Selectivity CB1 (CB1 cannabinoid receptor; Table 9): 59
- Ki (CB2 cannabinoid receptor; [2]): 177 nM

SMILES: O=C(NN1CCCCC1)c1nn(-c2ccc(Cl)cc2Cl)c(-c2ccc(CCCO)cc2)c1CO [Compound 4-6]
- Ki (CB1 cannabinoid receptor; [1]): 21 nM
- Selectivity CB1 (CB1 cannabinoid receptor; Table 9): 3
- Ki (CB2 cannabinoid receptor; [2]): 66 nM

SMILES: Cc1c(C(=O)NN2CCCCC2)nn(-c2ccc(Cl)cc2Cl)c1-c1ccc(C#CCCCCN)cc1 [Compound 5-15]
- Ki (CB1 cannabinoid receptor; [3]): 87 nM
- Selectivity CB1 (CB1 cannabinoid receptor; Table 10): 17
- Ki (CB2 cannabinoid receptor; [4]): 1530 nM

SMILES: Cc1c(C(=O)NN2CCCCC2)nn(-c2ccc(Cl)cc2Cl)c1-c1ccc(C#CCCC#N)cc1 [Compound 2-3]
- Ki (CB1 cannabinoid receptor; CB1 Ki, Table 7, 0.8 nM [3H] CP-55,940): 0.35 nM
- Ki (CB2 cannabinoid receptor; Table 7, [3H] CP-55,940, read-out: CB2 Ki): 127 nM

SMILES: Cn1nnc(-c2ccc(-n3c(-c4ccc(Cl)cc4Cl)nc(C(=O)NN4CCCCC4)c3CO)cc2)n1 [Compound 1-21]
- Ki (CB1 cannabinoid receptor; [5]): 10.5 nM
- Ki (CB2 cannabinoid receptor; [6]): 539 nM

SMILES: Cc1c(C(=O)NN2CCCCC2)nc(-c2ccc(Cl)cc2Cl)n1-c1ccc(C#CCCO)cc1 [Compound 1-32]
- Ki (CB1 cannabinoid receptor; [5]): 6.2 nM
- Ki (CB2 cannabinoid receptor; [6]): 5090 nM

SMILES: Cc1cc(Br)ccc1-n1c(-c2ccc(Cl)cc2Cl)nc(C(=O)NN2CCCCC2)c1CO [Compound 1-3]
- Ki (CB1 cannabinoid receptor; [5]): 54.7 nM
- Ki (CB2 cannabinoid receptor; [6]): 803 nM

SMILES: CN(C(=O)Nc1nc(-c2ccc(Cl)cc2Cl)n(-c2ccc(Br)cc2)c1CO)C1CCCCC1 [Compound 1-40]
- Ki (CB1 cannabinoid receptor; [5]): 10 nM
- Ki (CB2 cannabinoid receptor; [6]): 1020 nM

SMILES: CN(C(=O)c1nc(-c2ccc(Cl)cc2Cl)n(-c2ccc(-c3nnn(C)n3)cc2)c1CO)C1CCCCC1 [Compound 1-27]
- Ki (CB1 cannabinoid receptor; [5]): 19 nM
- Ki (CB2 cannabinoid receptor; [6]): 620 nM

- Ki (CB1 cannabinoid receptor; [7]): 404 nM
- Ki (CB2 cannabinoid receptor; [6]): 10700 nM
SMILES: Cc1c(C(=O)NN2CCCCC2)nc(-c2ccc(Cl)cc2Cl)n1-c1ccc(-c2nnn[nH]2)cc1 [Compound 1-16]

SMILES: Cc1c(C(=O)NN2CCCCC2)nn(-c2ccc(Cl)cc2Cl)c1-c1ccc(CCCO)cc1 [Compound 4-1, 1-(2,4-Dichloro-phenyl)-5-[4-(3-hydroxy-propyl)-phenyl]-4-methyl-1H-pyrazole-3-carboxylic acid piperidin-1-ylamide]
- Ki (CB1 cannabinoid receptor; [1]): 26 nM
- Selectivity CB1 (CB1 cannabinoid receptor; Table 9): 8
- Ki (CB2 cannabinoid receptor; [2]): 230 nM

SMILES: Cc1c(C(=O)NN2CCCCC2)nc(-c2ccc(Cl)cc2Cl)n1-c1ccc(Br)cc1 [Compound 1-2]
- Ki (CB1 cannabinoid receptor; [5]): 11.5 nM
- Ki (CB2 cannabinoid receptor; [8]): 462 nM

- Ki (CB1 cannabinoid receptor; [7]): 5210 nM
- Ki (CB2 cannabinoid receptor; [6]): 858 nM
SMILES: CN(C(=O)c1nc(-c2ccc(Cl)cc2Cl)n(-c2ccc(-c3nnn[nH]3)cc2)c1CO)C1CCCCC1 [Compound 1-25]

SMILES: N#Cc1ccc(-n2c(-c3ccc(Cl)cc3Cl)nc(C(=O)NN3CCCCC3)c2CO)cc1 [Compound 1-9]
- Ki (CB1 cannabinoid receptor; [5]): 51 nM
- Ki (CB2 cannabinoid receptor; [6]): 5460 nM

- Ki (CB1 cannabinoid receptor; [7]): 5760 nM
- Ki (CB2 cannabinoid receptor; [6]): 22300 nM
SMILES: O=C(NN1CCCCC1)c1nc(-c2ccc(Cl)cc2Cl)n(-c2ccc(-c3nnn[nH]3)cc2)c1CO [Compound 1-19]

SMILES: Cc1c(C(=O)NN2CCCCC2)nn(-c2ccc(Cl)cc2Cl)c1-c1ccc(C#CC(C)(C)C)cc1 [Compound 5-11]
- Ki (CB1 cannabinoid receptor; [3]): 25 nM
- Selectivity CB1 (CB1 cannabinoid receptor; Table 10): 1
- Ki (CB2 cannabinoid receptor; [4]): 25 nM

SMILES: O=C(Nc1nc(-c2ccc(Cl)cc2Cl)n(-c2ccc(I)cc2)c1CO)NC1CCCCC1 [Compound 1-39]
- Ki (CB1 cannabinoid receptor; [5]): 6.8 nM
- Ki (CB2 cannabinoid receptor; [6]): 1340 nM

SMILES: Cc1c(C(=O)NN2CCCCC2)nn(-c2ccc(Cl)cc2Cl)c1-c1ccc(C#CCCCCO)cc1 [Compound 3-7]
- Ki (CB1 cannabinoid receptor; Receptor Affinities Ki (nM) CB1, Table 8): 3 nM
- Selectivity CB1 (CB1 cannabinoid receptor; Table 8): 39
- Ki (CB2 cannabinoid receptor; Table 8, read-out: Receptor Affinities Ki (nM) CB2): 116 nM

SMILES: Cc1c(C(=O)NN2CCCCC2)nn(-c2ccc(Cl)cc2Cl)c1-c1ccc(CCCCO)cc1 [Compound 4-2]
- Ki (CB1 cannabinoid receptor; [1]): 2 nM
- Selectivity CB1 (CB1 cannabinoid receptor; Table 9): 21
- Ki (CB2 cannabinoid receptor; [2]): 43 nM

- Ki (CB1 cannabinoid receptor; [7]): 101 nM
- Ki (CB2 cannabinoid receptor; [6]): 1320 nM
SMILES: CN(C(=O)c1nc(-c2ccc(Cl)cc2Cl)n(-c2ccc(-c3nnnn3C)cc2)c1CO)C1CCCCC1 [Compound 1-26]

SMILES: Cc1c(C(=O)NN2CCCCC2)nc(-c2ccc(Cl)cc2Cl)n1-c1ccc(C#CCCC#N)cc1 [Compound 1-33]
- Ki (CB1 cannabinoid receptor; [5]): 1.6 nM
- Ki (CB2 cannabinoid receptor; [6]): 271 nM

SMILES: Cc1c(C(=O)NN2CCCCC2)nn(-c2ccc(Cl)cc2Cl)c1-c1ccc(C#Cc2ccccn2)cc1 [Compound 5-9]
- Ki (CB1 cannabinoid receptor; [3]): 50 nM
- Selectivity CB1 (CB1 cannabinoid receptor; Table 10): 1
- Ki (CB2 cannabinoid receptor; [4]): 59 nM

SMILES: Cc1c(NC(=O)NC2CCCCC2)nc(-c2ccc(Cl)cc2Cl)n1-c1ccc(Br)cc1 [Compound 1-35]
- Ki (CB1 cannabinoid receptor; [5]): 6.9 nM
- Ki (CB2 cannabinoid receptor; [8]): 20500 nM
